For this test, the system named is AMPK. Briefly: AMPK activation assay (enzyme-linked immunosorbent assay). The test is classed as cell-based. The procedure, abridged:
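Activator screen performed per well-known kit methods.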

In general, EC50 refers to the concentration needed to bring the measured effect to its halfway point. Higher therefore signals lower potency in that assay.

Bounds are passed on as bounds.

On to `N#Cc1ccc(CN2CCC(NC(=O)c3ccc(C(=O)N4CC[C@@H](Oc5ccc(F)cc5)C4)cn3)CC2)cc1` [Compound 278, (R)-N-(1-(4-cyanobenzyl)piperidin-4-yl)-5-(3-(4-fluorophenoxy)pyrrolidine-1-carbonyl)picolinamide], for which the EC50 is < 500 nM.
For `COc1ccc(OC2CCN(C(=O)c3ccc(C(=O)NC4CCN(Cc5ccc(C#N)cc5)CC4)cn3)CC2)c([N+](=O)[O-])c1` [Compound 378, N-(1-(4-cyanobenzyl)piperidin-4-yl)-6-(4-(4-methoxy-2-nitrophenoxy)piperidine-1-carbonyl)nicotinamide], the EC50 was < 500 nM.
On to `O=C(N[C@H]1CC[C@@H](Oc2ccc(F)cc2)CC1)c1ccc(C(=O)N2CCC(C(=O)c3ccc(F)cc3)CC2)cn1` [Compound 304, 5-(4-(4-fluorobenzoyl)piperidine-1-carbonyl)-N-((cis)-4-(4-fluorophenoxy)cyclohexyl)picolinamide], for which the EC50 is < 500 nM.
Under `COc1cccc(CN2CCC(NC(=O)c3ccc(C(=O)N4CCC(Oc5ccc(S(C)(=O)=O)cc5)CC4)nc3)CC2)c1` [Compound 238, N-(1-(3-methoxybenzyl)piperidin-4-yl)-6-(4-(4-(methylsulfonyl)phenoxy)piperidine-1-carbonyl)nicotinamide] stands 1000 to 5000 nM.
Under `COc1ccc(C(=O)C2CCN(C(=O)c3ccc(C(=O)N[C@H]4CC[C@@H](Oc5ccc(C#N)c(F)c5)CC4)nc3)CC2)cc1` [Compound 198, N-((cis)-4-(4-cyano-3-fluorophenoxy)cyclohexyl)-5-(4-(4-methoxybenzoyl)piperidine-1-carbonyl)picolinamide] stands < 500 nM.
`CN(C)c1ccc(OC2CCN(C(=O)c3ccc(C(=O)NC4CCN(Cc5ccc(C#N)cc5)CC4)cn3)CC2)cc1` [Compound 370, N-(1-(4-cyanobenzyl)piperidin-4-yl)-6-(4-(4-(dimethylamino)phenoxy)piperidine-1-carbonyl)nicotinamide]: the EC50 was < 500 nM.
On to `O=C(Nc1ccc(Oc2ccc(F)cc2)nc1)c1ccc(C(=O)N2CCC(Oc3cccc(NC(=O)C4CC4)c3)CC2)nc1` [Compound 433, 6-(4-(3-(cyclopropanecarboxamido)phenoxy)piperidine-1-carbonyl)-N-(6-(4-fluorophenoxy)pyridin-3-yl)nicotinamide], for which the EC50 is < 500 nM.
Under `CC(C)S(=O)(=O)c1ccc(N2CCN(C(=O)c3ccc(C(=O)NC4CCN(Cc5ccc(C#N)cc5)CC4)nc3)CC2)cc1` [Compound 251, N-(1-(4-cyanobenzyl)piperidin-4-yl)-5-(4-(4-(isopropylsulfonyl)phenyl)piperazine-1-carbonyl)picolinamide] stands < 500 nM; under `N#Cc1ccc(CN2CCC(NC(=O)c3ccc(C(=O)N4CCC(Oc5cccc(C#N)c5)CC4)cn3)CC2)cc1` [Compound 155, N-(1-(4-cyanobenzyl)piperidin-4-yl)-5-(4-(3-cyanophenoxy)piperidine-1-carbonyl)picolinamide], < 500 nM; under `O=C(Nc1ccc(Br)cc1)c1ccc(C(=O)N2CCN(Cc3ccc(F)cc3)CC2)cn1` [Compound 28, N-(4-bromophenyl)-5-(4-(4-fluorobenzyl)piperazine-1-carbonyl)picolinamide], 500 to 1000 nM.
As to `O=C(Nc1ccc(Oc2ccc(F)cc2)nc1)c1ccc(C(=O)N2CCC(Oc3ccc(C(=O)C4CC4)cc3)CC2)nc1` [Compound 457, 6-(4-(4-(cyclopropanecarbonyl)phenoxy)piperidine-1-carbonyl)-N-(6-(4-fluorophenoxy)pyridin-3-yl)nicotinamide], the EC50 is < 500 nM.
For the compound `COc1ccc(CN2CCC(NC(=O)c3ccc(C(=O)N4CCC(S(=O)(=O)c5ccc(F)cc5)CC4)nc3)CC2)cc1` [Compound 474, 6-(4-(4-fluorophenylsulfonyl)piperidine-1-carbonyl)-N-(1-(4-methoxybenzyl)piperidin-4-yl)nicotinamide], the EC50 was in the range of 1000 to 5000 nM.
The same measure for `N#Cc1ccc(CN2CCC(NC(=O)c3ccc(N4CCC(Oc5ccc(C#N)cc5)CC4)cn3)CC2)cc1` [Compound 165, N-(1-(4-cyanobenzyl)piperidin-4-yl)-5-(4-(4-cyanophenoxy)piperidin-1-yl)picolinamide]: < 500 nM; for `CS(=O)(=O)c1ccc(OC2CCN(C(=O)c3ccc(C(=O)Nc4ccc(Oc5ccc(C#N)cc5)nc4)cn3)CC2)cc1` [Compound 459, N-(6-(4-cyanophenoxy)pyridin-3-yl)-6-(4-(4-(methylsulfonyl)phenoxy)piperidine-1-carbonyl)nicotinamide]: < 500 nM.
On to `N#Cc1ccc(OC2CCN(C(=O)c3ccc(C(=O)NCCOc4ccc(F)cc4)nc3)CC2)cc1` [Compound 306, 5-(4-(4-cyanophenoxy)piperidine-1-carbonyl)-N-(2-(4-fluorophenoxy)ethyl)picolinamide], for which the EC50 was < 500 nM.
On to `N#Cc1ccc(CN2CCC(NC(=O)c3ccc(C(=O)N4CC[C@H](Oc5ccc(C#N)cc5)[C@@H](F)C4)cn3)CC2)cc1` (relative stereo) [Compound 279, N-(1-(4-cyanobenzyl)piperidin-4-yl)-5-((trans)-4-(4-cyanophenoxy)-3-fluoropiperidine-1-carbonyl)picolinamide], for which the EC50 is < 500 nM.
With `CC(=O)Nc1cccc(OC2CCN(C(=O)c3ccc(C(=O)NC4CCN(Cc5ccc(F)cc5)CC4)cn3)CC2)c1` [Compound 413, 6-(4-(3-acetamidophenoxy)piperidine-1-carbonyl)-N-(1-(4-fluorobenzyl)piperidin-4-yl)nicotinamide], the EC50 lay in the range of 1000 to 5000 nM.
As for `N#Cc1ccc(-c2nnc3n2CCN(C(=O)c2ccc(C(=O)NC4CCN(Cc5cc(F)cc(F)c5)CC4)nc2)C3)cc1` [Compound 314, 5-(3-(4-cyanophenyl)-5,6,7,8-tetrahydro-[1,2,4]triazolo[4,3-a]pyrazine-7-carbonyl)-N-(1-(3,5-difluorobenzyl)piperidin-4-yl)picolinamide], the EC50 was > 10000 nM.
Under `N#Cc1ccc(CN2CCC(NC(=O)c3ccc(C(=O)N4CCC(C(=O)c5cccs5)CC4)cn3)CC2)cc1` [Compound 419, N-(1-(4-cyanobenzyl)piperidin-4-yl)-5-(4-(thiophene-2-carbonyl)piperidine-1-carbonyl)picolinamide] stands < 500 nM; under `N#Cc1ccc(CN2CCC(NC(=O)c3ccc(C(=O)N4CCC(C(=O)c5ccc(C#N)cc5)CC4)cn3)CC2)cc1` [Compound 369, 5-(4-(4-cyanobenzoyl)piperidine-1-carbonyl)-N-(1-(4-cyanobenzyl)piperidin-4-yl)picolinamide], < 500 nM; under `O=C(c1ccc(Nc2ccc(Oc3ccccc3)cc2)nc1)N1CCN(Cc2ccc(F)cc2)CC1` [Compound 34, (4-(4-fluorobenzyl)piperazin-1-yl)(6-(4-phenoxyphenylamino)pyridin-3-yl)methanone], 1000 to 5000 nM.
For the compound `N#Cc1ccc(CN2CCC(NC(=O)c3ccc(C(=O)N4CCC(C(=O)c5ccc(F)cc5F)CC4)nc3)CC2)cc1` [Compound 346, N-(1-(4-cyanobenzyl)piperidin-4-yl)-6-(4-(2,4-difluorobenzoyl)piperidine-1-carbonyl)nicotinamide], the EC50 is < 500 nM.
The same measure for `COc1ccc(OC2CCN(C(=O)c3ccc(C(=O)Nc4ccc(Oc5ccc(F)cc5)nc4)nc3)CC2)cc1` [Compound 70, 5-(4-(4-methoxyphenoxy)piperidine-1-carbonyl)-N-(6-(4-fluorophenoxy)pyridin-3-yl)picolinamide]: < 500 nM.
Under `CC1(C)CN(C(=O)c2ccc(C(=O)NC3CCN(Cc4ccc(C#N)cc4)CC3)nc2)CCN1Cc1ccc(F)cc1` [Compound 125, N-(1-(4-cyanobenzyl)piperidin-4-yl)-5-(4-(4-fluorobenzyl)-3,3-dimethylpiperazine-1-carbonyl)picolinamide] stands < 500 nM.
For `COc1ccc(OC2CCN(C(=O)c3ccc(C(=O)NC4CCN(Cc5ccc(F)cc5)CC4)nc3)CC2)cc1` [Compound 183, N-(1-(4-fluorobenzyl)piperidin-4-yl)-5-(4-(4-methoxyphenoxy)piperidine-1-carbonyl)picolinamide], the EC50 was < 500 nM.
As for `O=C(Nc1ccc(Oc2ccc(F)cc2)nc1)c1ccc(C(=O)N2CCC(F)(C(=O)c3ccc(F)cc3)CC2)cn1` [Compound 67, 5-(4-(4-fluoro-4-fluorobenzoyl)piperidine-1-carbonyl)-N-(6-(4-fluorophenoxy)pyridin-3-yl)picolinamide], the EC50 is < 500 nM.
On to `O=C(NC1CCN(Cc2ccccc2)CC1)c1ccc(C(=O)N2CCN(Cc3ccccc3)CC2)cn1` [Compound 72, 5-(4-benzylpiperazine-1-carbonyl)-N-(1-benzylpiperidin-4-yl)picolinamide], for which the EC50 was < 500 nM.
Turning to `COc1ccc(CN2CCC(NC(=O)c3ccc(C(=O)N4CCC(Oc5ccc(C#N)cc5)CC4)nc3)CC2)cc1` [Compound 319, 6-(4-(4-cyanophenoxy)piperidine-1-carbonyl)-N-(1-(4-methoxybenzyl)piperidin-4-yl) nicotinamide], the EC50 was < 500 nM.
With `N#Cc1cccc(Oc2ccc(NC(=O)c3ccc(C(=O)N4CCN(Cc5ccc(F)cc5)CC4)cn3)cn2)c1` [Compound 64, 5-(4-(4-fluorobenzyl)piperazine-1-carbonyl)-(6-(3-cyanophenoxy)pyridin-3-yl)picolinamide], the EC50 is < 500 nM.
The same measure for `N#Cc1ccc(CN2CCC(NC(=O)c3ccc(N4CCC(C(=O)c5ccc(Cl)cc5)CC4)cn3)CC2)cc1` [Compound 266, 5-(4-(4-chlorobenzoyl)piperidin-1-yl)-N-(1-(4-cyanobenzyl)piperidin-4-yl)picolinamide]: < 500 nM; for `CS(=O)(=O)c1ccc(OC2CCN(C(=O)c3ccc(C(=O)NC4CCN(Cc5ccc(C#N)cc5)CC4)cn3)CC2)cc1` [Compound 397, N-(1-(4-cyanobenzyl)piperidin-4-yl)-6-(4-(4-(methylsulfonyl)phenoxy)piperidine-1-carbonyl)nicotinamide]: < 500 nM; for `CC(=O)c1ccc(Oc2ccc(NC(=O)c3ccc(C(=O)N4CCN(Cc5ccc(F)cc5)CC4)nc3)cn2)cc1` [Compound 477, N-(6-(4-acetylphenoxy)pyridin-3-yl)-6-(4-(4-fluorobenzyl)piperazine-1-carbonyl)nicotinamide]: < 500 nM.

The record behind these values is patent US20150087673A1, “METHODS FOR USING AND BIOMARKERS FOR AMPK-ACTIVATING COMPOUNDS” (RIGEL PHARMACEUTICALS, INC., priority 2013, published 2015).
